Results reported in DBAASP.
Converted amounts (≈) assume the structure as drawn.

How the values were obtained:
Test in all cases: ≥ marks a high value that may be exact or a test limit, other limits are often not marked, values filed in µg/mL are converted to µM
[1] = tested on: Pseudomonas aeruginosa H1001
[2] = tested on: Candida albicans NCPF 1467
[3] = tested on: Escherichia coli NCTC 10418
[4] = tested on: Staphylococcus aureus NCTC 10788
[5] = tested on: Micrococcus luteus ATCC 10240
Escherichia coli BL21AI = tested on: Escherichia coli BL21AI
Saccharomyces cerevisiae = tested on: Saccharomyces cerevisiae
[6] = tested on: Pseudomonas aeruginosa ATCC 15692
[7] = tested on: Escherichia coli ATCC 25922
[8] = tested on: Staphylococcus aureus ATCC 25923
Micrococcus luteus = tested on: Micrococcus luteus
Staphylococcus aureus = tested on: Staphylococcus aureus
Escherichia coli B = tested on: Escherichia coli B
Bacillus subtilis 168 = tested on: Bacillus subtilis 168
[9] = tested on: Micrococcus luteus CCM 144
[10] = tested on: Candida albicans F7-39/IDE99
Pseudomonas aeruginosa = tested on: Pseudomonas aeruginosa
[11] = tested on: Salmonella enterica subsp. enterica serovar Typhimurium C77-31
[12] = tested on: Salmonella enterica subsp. enterica serovar Pullorum C79-13
[13] = tested on: Enterococcus faecalis ATCC 29212
[14] = tested on: Staphylococcus aureus ATCC 29213
[15] = tested on: Staphylococcus epidermidis ATCC 12228

Q: How did the MIC [1] turn out when `CC[C@H](C)[C@H](NC(=O)[C@@H](N)Cc1ccccc1)C(=O)N[C@@H](CCCN=C(N)N)C(=O)N[C@@H](Cc1c[nH]c2ccccc12)C(=O)N[C@@H](CCCN=C(N)N)C(=O)N[C@@H](Cc1ccccc1)C(=O)N[C@@H](CCCN=C(N)N)C(=O)N[C@@H](Cc1c[nH]c2ccccc12)C(=O)N[C@@H](Cc1c[nH]c2ccccc12)C(=O)N[C@@H](CCCN=C(N)N)C(=O)N[C@@H](Cc1c[nH]c2ccccc12)C(=O)N[C@@H](CCCN=C(N)N)C(=O)N[C@@H](CCCN=C(N)N)C(N)=O` [FIRWRFRWWRWRR] was run?
A: 2.85 µM (≈ 6 µg/mL)

Q: How did the MIC [2] turn out when `CC[C@H](C)[C@H](NC(=O)CNC(=O)[C@H](CO)NC(=O)[C@H](C)NC(=O)[C@@H](NC(=O)[C@H](Cc1cnc[nH]1)NC(=O)[C@@H]1CCCN1C(=O)[C@@H](NC(=O)[C@H](CC(C)C)NC(=O)[C@H](CO)NC(=O)[C@H](CC(C)C)NC(=O)[C@@H](N)Cc1ccccc1)[C@@H](C)CC)[C@@H](C)CC)C(=O)N[C@@H](C)C(=O)N[C@@H](CO)C(=O)N[C@@H](CC(C)C)C(=O)N[C@H](C(=O)N[C@@H](CCCCN)C(=O)N[C@@H](CC(N)=O)C(=O)N[C@@H](Cc1ccccc1)C(N)=O)C(C)C` [FLSLIPHIASGIASLVKNF] was run?
A: 20 µM (≈ 40.5 µg/mL)

Q: What about the MIC [3] of the same compound?
A: ≥ 200 µM

Q: What about the MIC [4] of the same compound?
A: 5 µM (≈ 10.1 µg/mL)

Q: What does the source list for `CC[C@H](C)[C@H](NC(=O)[C@H](CO)NC(=O)[C@H](CC(N)=O)NC(=O)[C@@H](NC(=O)[C@H](Cc1ccccc1)NC(=O)[C@H](C)NC(=O)[C@H](CO)NC(=O)[C@H](C)NC(=O)[C@H](Cc1ccccc1)NC(=O)[C@H](CC(=O)O)NC(=O)[C@H](CCCCN)NC(=O)[C@H](C)NC(=O)CNC(=O)[C@@H](NC(=O)[C@H](CCCCN)NC(=O)[C@H](CC(C)C)NC(=O)[C@H](CCCCN)NC(=O)[C@H](CCC(=O)O)NC(=O)[C@H](CC(C)C)NC(=O)[C@H](Cc1ccccc1)NC(=O)CN)[C@@H](C)O)C(C)C)C(=O)N[C@@H](CCCCN)C(N)=O` [GFLEKLKTGAKDFASAFVNSIK]?
A: MIC [2]: ≥ 108 µM; MIC [3]: ≥ 54 µM; MIC [4]: ≥ 216 µM

Q: With `CC[C@H](C)[C@H](NC(=O)[C@H](Cc1ccc(O)cc1)NC(=O)[C@@H](NC(=O)[C@@H]1CCCN1C(=O)[C@H](CCCN=C(N)N)NC(=O)[C@H](CC(N)=O)NC(=O)[C@H](CC(N)=O)NC(=O)CN)C(C)C)C(=O)N[C@@H](C)C(=O)N[C@@H](CCC(N)=O)C(=O)N1CCC[C@H]1C(=O)N[C@@H](CCCN=C(N)N)C(=O)N1CCC[C@H]1C(=O)N1CCC[C@H]1C(=O)N[C@@H](Cc1cnc[nH]1)C(=O)N1CCC[C@H]1C(=O)N[C@@H](C)C(=O)N[C@@H](CC(C)C)C(N)=O` [GNNRPVYIAQPRPPHPAL] as the compound, how does the MIC [5] read?
A: ≥ 62.6 µM

Q: What about the MIC (Escherichia coli BL21AI) of the same compound?
A: ≥ 62.6 µM

Q: With `CC[C@H](C)[C@H](NC(=O)CNC(=O)[C@@H]1CCCN1C(=O)[C@H](CC(C)C)NC(=O)[C@H](C)NC(=O)[C@H](CC(N)=O)NC(=O)[C@H](CCCCN)NC(=O)[C@@H](NC(=O)[C@@H](NC(=O)[C@H](CO)NC(=O)[C@H](CC(C)C)NC(=O)[C@@H](NC(=O)CN)C(C)C)C(C)C)[C@@H](C)CC)C(=O)N[C@@H](CCSC)C(=O)N[C@@H](CCCN=C(N)N)C(=O)N[C@@H](Cc1ccccc1)C(=O)N[C@H](C(=O)N[C@@H](C)C(N)=O)[C@@H](C)CC` [GVLSVIKNALPGIMRFIA] as the compound, how does the MIC [2] read?
A: 4.21 µM (≈ 8 µg/mL)

Q: What about the MIC [3] of the same compound?
A: ≥ 33.7 µM

Q: What about the MIC [4] of the same compound?
A: 4.21 µM (≈ 8 µg/mL)

Q: With `CC[C@H](C)[C@H](NC(=O)[C@@H]1CCCN1C(=O)[C@H](CCC(N)=O)NC(=O)[C@@H](NC(=O)[C@H](CC(C)C)NC(=O)[C@H](CCCCN)NC(=O)[C@@H]1CCCN1C(=O)CNC(=O)[C@H](CC(C)C)NC(=O)[C@H](CCC(N)=O)NC(=O)[C@H](CCSC)NC(=O)[C@H](C)NC(=O)[C@H](CCCCN)NC(=O)[C@H](CCCN=C(N)N)NC(=O)[C@H](CC(C)C)NC(=O)[C@@H](NC(=O)[C@H](CCCCN)NC(=O)CNC(=O)[C@H](Cc1ccccc1)NC(=O)[C@@H](NC(=O)[C@@H]1CCCN1C(=O)[C@H](CC(C)C)NC(=O)[C@H](Cc1c[nH]c2ccccc12)NC(=O)CN)[C@@H](C)O)[C@@H](C)CC)[C@@H](C)CC)C(=O)O` [GWLPTFGKILRKAMQLGPKLIQPI] as the compound, how does the MIC (Saccharomyces cerevisiae) read?
A: ≥ 32 µM

Q: And the MIC [6]?
A: 11.3 µM (≈ 30.6 µg/mL)

Q: And the MIC [7]?
A: 1.41 µM (≈ 3.83 µg/mL)

Q: What about the MIC [8] of the same compound?
A: 16 µM (≈ 43.3 µg/mL)

Q: What about the MIC (Micrococcus luteus) of the same compound?
A: 1 µM (≈ 2.71 µg/mL)

Q: With `CC[C@H](C)[C@H](NC(=O)[C@H](CCCCN)NC(=O)[C@H](Cc1c[nH]c2ccccc12)NC(=O)[C@H](CCCCN)NC(=O)[C@@H](N)CCCCN)C(=O)N[C@H](C(=O)N[C@H](C(=O)N[C@H](C(=O)N[C@@H](CCCCN)C(=O)N[C@@H](Cc1c[nH]c2ccccc12)C(=O)N[C@@H](CCCCN)C(=O)N[C@@H](CCCCN)C(N)=O)[C@@H](C)CC)C(C)C)C(C)C` [KKWKIVVIKWKK] as the compound, how does the MIC [1] read?
A: 2.53 µM (≈ 4 µg/mL)

Q: With `CC[C@H](C)[C@H](NC(=O)[C@H](C)NC(=O)[C@H](CCCCN)NC(=O)[C@H](Cc1c[nH]c2ccccc12)NC(=O)[C@H](CC(N)=O)NC(=O)[C@@H](N)CCCCN)C(=O)N[C@@H](CC(C)C)C(=O)N[C@@H](CCCCN)C(=O)N[C@@H](Cc1cnc[nH]1)C(=O)N[C@H](C(=O)N[C@H](C(=O)N[C@@H](CCCCN)C(N)=O)[C@@H](C)CC)[C@@H](C)CC` [KNWKAILKHIIK] as the compound, how does the MIC (Staphylococcus aureus) read?
A: 65 µM (≈ 96.9 µg/mL)

Q: And the MIC (Escherichia coli B)?
A: 7.8 µM (≈ 11.6 µg/mL)

Q: And the MIC (Bacillus subtilis 168)?
A: 2.5 µM (≈ 3.73 µg/mL)

Q: What about the MIC [9] of the same compound?
A: 5 µM (≈ 7.45 µg/mL)

Q: What about the MIC [10] of the same compound?
A: 8 µM (≈ 11.9 µg/mL)

Q: What about the MIC (Pseudomonas aeruginosa) of the same compound?
A: 65 µM (≈ 96.9 µg/mL)

Q: `NCCCC[C@H](NC(=O)[C@H](CCCCN)NC(=O)[C@H](Cc1c[nH]c2ccccc12)NC(=O)[C@H](CCCCN)NC(=O)[C@H](Cc1c[nH]c2ccccc12)NC(=O)[C@H](Cc1c[nH]c2ccccc12)NC(=O)[C@@H](N)CCCCN)C(N)=O` [KWWKWKK] was tested. Which MIC [1] did it give?
A: ≥ 229 µM

Q: How did the MIC (Staphylococcus aureus) turn out when `CC[C@H](C)[C@H](NC(=O)[C@H](C)NC(=O)CNC(=O)[C@H](Cc1c[nH]c2ccccc12)NC(=O)[C@H](CC(N)=O)NC(=O)[C@@H](N)CC(C)C)C(=O)N[C@@H](CC(C)C)C(=O)N[C@@H](CCCCN)C(=O)N[C@@H](Cc1cnc[nH]1)C(=O)N[C@H](C(=O)N[C@H](C(=O)N[C@@H](CCCCN)C(N)=O)[C@@H](C)CC)[C@@H](C)CC` [LNWGAILKHIIK] was run?
A: 10.6 µM (≈ 14.9 µg/mL)

Q: What about the MIC (Escherichia coli B) of the same compound?
A: 3.7 µM (≈ 5.2 µg/mL)

Q: What about the MIC (Bacillus subtilis 168) of the same compound?
A: 1.3 µM (≈ 1.83 µg/mL)

Q: What about the MIC [9] of the same compound?
A: 1.5 µM (≈ 2.11 µg/mL)

Q: And the MIC [10]?
A: 7.3 µM (≈ 10.3 µg/mL)

Q: What about the MIC (Pseudomonas aeruginosa) of the same compound?
A: 51.7 µM (≈ 72.6 µg/mL)

Q: For `CC[C@H](C)[C@H](NC(=O)[C@H](CCCN=C(N)N)NC(=O)[C@H](CCCN=C(N)N)NC(=O)[C@@H]1CCCN1C(=O)[C@@H]1CCCN1C(=O)[C@H](CCCN=C(N)N)NC(=O)[C@@H]1CCCN1C(=O)[C@H](CCCN=C(N)N)NC(=O)[C@@H]1CCCN1C(=O)[C@H](CC(C)C)NC(=O)[C@H](Cc1ccc(O)cc1)NC(=O)[C@@H]1CCCN1C(=O)[C@@H]1CCCN1C(=O)[C@H](CCCCN)NC(=O)[C@H](CC(=O)O)NC(=O)[C@@H](N)C(C)C)C(=O)N[C@@H](Cc1ccc(O)cc1)C(=O)N[C@@H](CC(N)=O)C(=O)N[C@@H](CCCN=C(N)N)C(=O)N[C@@H](CC(N)=O)C(=O)O` [VDKPPYLPRPRPPRRIYNRN], which MIC [5] is on record?
A: 6.39 µM (≈ 16 µg/mL)

Q: What about the MIC (Escherichia coli BL21AI) of the same compound?
A: 3.19 µM (≈ 8 µg/mL)

Q: Which MIC [1] does the source give for `CC[C@H](C)[C@H](NC(=O)[C@H](CCCN=C(N)N)NC(=O)[C@H](CCCN=C(N)N)NC(=O)[C@@H]1CCCN1C(=O)[C@H](Cc1c[nH]c2ccccc12)NC(=O)[C@H](CCCN=C(N)N)NC(=O)[C@@H]1CCCN1C(=O)[C@H](CCCN=C(N)N)NC(=O)[C@@H]1CCCN1C(=O)[C@H](CC(C)C)NC(=O)[C@H](Cc1ccc(O)cc1)NC(=O)[C@@H]1CCCN1C(=O)[C@@H]1CCCN1C(=O)[C@H](CCCCN)NC(=O)[C@H](CC(=O)O)NC(=O)[C@@H](N)C(C)C)C(=O)N[C@@H](Cc1ccc(O)cc1)C(=O)N[C@@H](CC(N)=O)C(=O)N[C@@H](CCCN=C(N)N)C(=O)NCC(=O)O` [VDKPPYLPRPRWPRRIYNRG] here?
A: 0.0591 µM (≈ 0.15 µg/mL)

Q: Which results are given for `NCCCC[C@H](NC(=O)CNC(=O)[C@H](CC(N)=O)NC(=O)[C@H](CCCCN)NC(=O)[C@H](Cc1c[nH]c2ccccc12)NC(=O)[C@H](CCCCN)NC(=O)[C@H](Cc1c[nH]c2ccccc12)NC(=O)[C@H](CCCCN)NC(=O)[C@@H](N)Cc1c[nH]c2ccccc12)C(=O)N[C@@H](Cc1c[nH]c2ccccc12)C(=O)N[C@@H](CCCCN)C(=O)N[C@@H](Cc1c[nH]c2ccccc12)C(=O)N[C@@H](CCCCN)C(=O)N[C@@H](Cc1c[nH]c2ccccc12)C(=O)O` [WKWKWKNGKWKWKW]?
A: MIC [11]: 8 µM (≈ 16.6 µg/mL); MIC [12]: 4 µM (≈ 8.3 µg/mL); MIC [7]: 2 µM (≈ 4.15 µg/mL); MIC [13]: 16 µM (≈ 33.2 µg/mL); MIC [14]: 4 µM (≈ 8.3 µg/mL); MIC [15]: 32 µM (≈ 66.4 µg/mL)
